Reference: patent US11753409B2, “Crystalline salts of a B-RAF kinase inhibitor” (Xynomic Pharmaceuticals, Inc., priority 2017, dated 2023)
“Also recorded” adds a separate entry of the source. Like-named read-outs stand apart in the source and are kept apart here.

Tests used:
[1] = Milling and compression stress followed by XRPD; format: physicochemical
Method: FIG. 20 is a plot of the XRPD of N-(3-(5-((1-ethylpiperidin-4-yl)(methyl)amino)-3-(pyrimidin-5-yl)-1H-pyrrolo[3,2-b]pyridin-1-yl)-2,4-difluorophenyl)propane-1-sulfonamide monohydrochloride salt following milling in a swing mill for 10 min. at 30 rps.
FIG. 21 is a plot of the XRPD of N-(3-(5-((1-ethylpiperidin-4-yl)(methyl)amino)-3-(pyrimidin-5-yl)-1H-pyrrolo[3,2-b]pyridin-1-yl)-2,4-difluorophenyl)propane-1-sulfonamide monohydrochloride salt following compression at 2000 N for 1 s to a tablet (diameter-5 mm).
FIG. 31 is a plot of the XRPD of N-(3-(5-((1-ethylpiperidin-4-yl)(methyl)amino)-3-(pyrimidin-5-yl)-1H-pyrrolo[3,2-b]pyridin-1-yl)-2,4-difluorophenyl)propane-1-sulfonamide monosuccinate salt following milling in a swing mill for 10 min. at 30 rps.
FIG. 32 is a plot of the XRPD of N-(3-(5-((1-ethylpiperidin-4-yl)(methyl)amino)-3-(pyrimidin-5-yl)-1H-pyrrolo[3,2-b]pyridin-1-yl)-2,4-difluorophenyl)propane-1-sulfonamide monosuccinate salt following compression at 2000 N for 1 s to a tablet (diameter-5 mm).

[2] = Equilibrium solubility in various aqueous media (solubility after 2 h); format: physicochemical; conditions: for solubility at 2 h: thermodynamic from solid
Method: Saturated solutions are prepared in well plates by adding an appropriate volume of selected aqueous media (typically in the range of 0.25-1.5 mL) into each well which contains a known quantity of solid drug substance (typically in the range 0.5-5.0 mg). The wells are shaken or stirred for a predefined time period (typically in a range of 2-24 h) and then filtered using appropriate filter membranes (typically PTFE-filters with 0.45 μm pore size). Filter absorption is avoided by discarding the first few drops of filtrate. The amount of dissolved drug substance is determined by UV spectroscopy. In addition, the pH of the aqueous saturated solution is measured using a glass-electrode pH meter.
The equilibrium solubility of N-(3-(5-((1-Ethylpiperidin-4-yl)(methyl)amino)-3-(pyrimidin-5-yl)-1H-pyrrolo[3,2-b]pyridin-1-yl)-2,4-difluorophenyl)propane-1-sulfonamide monohydrochloride salt in various media was determined.
The solubility of N-(3-(5-((1-Ethylpiperidin-4-yl)(methyl)amino)-3-(pyrimidin-5-yl)-1H-pyrrolo[3,2-b]pyridin-1-yl)-2,4-difluorophenyl)propane-1-sulfonamide monosuccinate salt in various media was determined.

[3] = Intrinsic dissolution rate, rotating disc method; format: physicochemical
Method: The intrinsic dissolution rate of 3-(5-((1-ethylpiperidin-4-yl)(methyl)amino)-3-(pyrimidin-5-yl)-1H-pyrrolo[3,2-b]pyridin-1-yl)-2,4-difluorophenyl)propane-1-sulfonamide salts was determined in aqueous media covering a range of pH 1.1-7.4 using the rotating disc method which maintains a constant surface area.
The drug substance (5 mg) was compressed at 356.1 Newtons for 60 s to form a disk. These disks were mounted to sample holders which fit into a miniaturized dissolution testing apparatus. The dissolution media were stirred at 200 rpm at a temperature of 37° C. Samples were automatically withdrawn every second minute from the dissolution vessel and assayed by UV spectrophotometry.
The intrinsic dissolution rate of N-(3-(5-((1-ethylpiperidin-4-yl)(methyl)amino)-3-(pyrimidin-5-yl)-TH-pyrrolo[3,2-b]pyridin-1-yl)-2,4-difluorophenyl)propane-1-sulfonamide monohydrochloride salt in various media was measured in media at various pH values.
The intrinsic dissolution rate of N-(3-(5-((1-ethylpiperidin-4-yl)(methyl)amino)-3-(pyrimidin-5-yl)-1H-pyrrolo[3,2-b]pyridin-1-yl)-2,4-difluorophenyl)propane-1-sulfonamide monosuccinate salt in various media was measured in media at various pH values.

[4] = Intrinsic dissolution rate, rotating disc method; format: physicochemical; conditions: pH of medium 1.0 (0.1M HCl), 37° C.
[5] = Sorption-desorption (DVS) of the salts with XRPD before and after; format: physicochemical
Method: Dynamic Vapor Sorption (DVS) was performed in a IGAsorp Water Sorption Analyzer from Hiden Isochema. Adsorption and desorption isotherms were performed at 25° C. with 10% RH step intervals ranging from 0% relative humidity up to 90% relative humidity.

[6] = Pharmacokinetics following oral administration to rats; format: in vivo, HsdHan:WIST Norway rats; conditions: rat; for AUD: AUD range 0-24 h
Method: The pharmacokinetics of N-(3-(5-((1-ethylpiperidin-4-yl)(methyl)amino)-3-(pyrimidin-5-yl)-1H-pyrrolo[3,2-b]pyridin-1-yl)-2,4-difluorophenyl)propane-1-sulfonamide hydrochloride salt and N-(3-(5-((1-ethylpiperidin-4-yl)(methyl)amino)-3-(pyrimidin-5-yl)-1H-pyrrolo[3,2-b]pyridin-1-yl)-2,4-difluorophenyl)propane-1-sulfonamide […] following oral administration at 40 mg and 80 mg (dose calculated as the free base) to HsdHan:WIST Norway rats. Each salt was administered to 3 animals.

## CCCS(=O)(=O)Nc1ccc(F)c(-n2cc(-c3cncnc3)c3nc(N(C)C4CCN(CC)CC4)ccc32)c1F.O=C(O)CCC(=O)O [Monosuccinate Salt, N-(3-(5-((1-Ethylpiperidin-4-yl)(methyl)amino)-3-(pyrimidin-5-yl)-1H-pyrrolo[3,2-b]pyridin-1-yl)-2,4-difluorophenyl)propane-1-sulfonamide monosuccinate salt]
[1]; 2000 N for 1 s to a tablet (diameter 5 mm)
  Crystallinity and polymorphic form after compression (XRPD): no significant decrease in crystallinity or change in polymorphic form
[1]; swing mill for 10 min. at 30 rps
  Crystallinity and polymorphic form after milling (XRPD): slight decrease in crystallinity but no change in polymorphic form
[2]; 0.01 M HCl, simulated gastric fluid, HCl (0.01M)
  solubility at 2 h: > 50 µg/mL
[2]; 0.1 M HCl, simulated gastric fluid, HCl (0.1M)
  solubility at 2 h: 200 µg/mL
[2]; a number of media tested
  Solubility compared with the monohydrochloride salt: substantially higher
[2]; aqueous buffer, 0.1M Citric acid
  solubility at 2 h: > 5000 µg/mL
[2]; aqueous buffer, Acetate Buffer (pH 5.0)
  solubility at 2 h: > 5000 µg/mL
[2]; aqueous buffer, McIlvaine Buffer (pH 2.2)
  solubility at 2 h: > 5000 µg/mL
[2]; aqueous buffer, McIlvaine Buffer (pH 3.0)
  solubility at 2 h: > 5000 µg/mL
[2]; aqueous buffer, McIlvaine Buffer (pH 4.0)
  solubility at 2 h: > 5000 µg/mL
[2]; aqueous buffer, McIlvaine Buffer (pH 4.5)
  solubility at 2 h: > 5000 µg/mL
[2]; aqueous buffer, McIlvaine Buffer (pH 5.0)
  solubility at 2 h: > 5000 µg/mL
[2]; aqueous buffer, McIlvaine Buffer (pH 6.0)
  solubility at 2 h: 3700 µg/mL
[2]; aqueous buffer, McIlvaine Buffer (pH 6.8)
  solubility at 2 h: > 5000 µg/mL
[2]; aqueous buffer, McIlvaine Buffer (pH 7.4)
  solubility at 2 h: 300 µg/mL
[2]; aqueous buffer, Phosphate Buffer (pH 6.8)
  solubility at 2 h: > 5000 µg/mL
[2]; aqueous buffer, Sorensen Buffer (pH 9.0)
  solubility at 2 h: 1 µg/mL
[2]; aqueous buffer, Sorensen Buffer (pH 11)
  solubility at 2 h: 50 µg/mL
[2]; Simulated intestinal fluid (FaSSIF)
  solubility at 2 h: 3 µg/mL
[2]; Simulated intestinal fluid (FeSSIF)
  solubility at 2 h: 400 µg/mL
[2]; water
  solubility at 2 h: > 2000 µg/mL
[3]
  Intrinsic dissolution rate compared with the monohydrochloride salt: substantially higher
[3]; pH of medium 2.2, 37° C.
  Intrinsic Dissolution Rate: 6844 μg/cm^2/min.
[3]; pH of medium 3.0, 37° C.
  Intrinsic Dissolution Rate: 6605 μg/cm^2/min.
[3]; pH of medium 4.5, 37° C.
  Intrinsic Dissolution Rate: 2457 μg/cm^2/min.
[3]; pH of medium 6.8, 37° C.
  Intrinsic Dissolution Rate: 2533 μg/cm^2/min.
[3]; pH of medium 7.4, 37° C.
  Intrinsic Dissolution Rate: <1 μg/cm^2/min.
[4]
  Intrinsic Dissolution Rate: 201 μg/cm^2/min.
[5]; XRPD before and after, monosuccinate salt
  Change in structure (XRPD) after sorption-desorption experiment: no change in crystallinity or polymorphic form; also recorded: no significant change in structure occurred
[5]; range from 0-80% relative humidity
  Reversible weight gain (isotherm sorption-desorption): approximately 0.25%
[5]; range from 0-90% relative humidity
  Reversible weight gain (isotherm sorption-desorption): approximately 0.4%
[5]; range from 10-90% relative humidity, scale-up sample
  Weight gain (sorption-desorption): approximately 1.2%
[6]; 40 mg/kg oral
  AUD: 30.3 µM·h
[6]; 80 mg/kg oral
  AUD: 25.1 µM·h
[6]; HsdHan:WIST, in vivo, 40 mg/kg oral
  Tmax: 2 h
[6]; HsdHan:WIST, in vivo, 80 mg/kg oral
  Tmax: 2.7 h
[6]; HsdHan:WIST, plasma, po, 40 mg/kg dose
  bioavailability: 50%
[6]; HsdHan:WIST, plasma, 40 mg/kg oral
  Cmax: 6550 nM
[6]; HsdHan:WIST, plasma, 80 mg/kg oral
  Cmax: 3520 nM
[6]; HsdHan:WIST, in vivo, po, 40 mg/kg, Time 24.0, 40 mg/kg oral, mean n = 3, read-out: Blood Plasma Concentrations
  concentration at 24 h: 3.98 nM
[6]; HsdHan:WIST, in vivo, po, 80 mg/kg, Time 24.0, 80 mg/kg oral, mean n = 3, read-out: Blood Plasma Concentrations
  concentration at 24 h: 5.09 nM
[6]; Time 0.5, 40 mg/kg oral, mean n = 3, read-out: Blood Plasma Concentrations
  concentration at 24 h: 523 nM
[6]; Time 0.5, 80 mg/kg oral, mean n = 3, read-out: Blood Plasma Concentrations
  concentration at 24 h: 274 nM
[6]; Time 1.0, 40 mg/kg oral, mean n = 3, read-out: Blood Plasma Concentrations
  concentration at 24 h: 1320 nM
[6]; Time 1.0, 80 mg/kg oral, mean n = 3, read-out: Blood Plasma Concentrations
  concentration at 24 h: 638 nM
[6]; Time 2.0, 40 mg/kg oral, mean n = 3, read-out: Blood Plasma Concentrations
  concentration at 24 h: 6550 nM
[6]; Time 2.0, 80 mg/kg oral, mean n = 3, read-out: Blood Plasma Concentrations
  concentration at 24 h: 3380 nM
[6]; Time 4.0, 40 mg/kg oral, mean n = 3, read-out: Blood Plasma Concentrations
  concentration at 24 h: 3860 nM
[6]; Time 4.0, 80 mg/kg oral, mean n = 3, read-out: Blood Plasma Concentrations
  concentration at 24 h: 2620 nM
[6]; Time 6.0, 40 mg/kg oral, mean n = 3, read-out: Blood Plasma Concentrations
  concentration at 24 h: 1140 nM
[6]; Time 6.0, 80 mg/kg oral, mean n = 3, read-out: Blood Plasma Concentrations
  concentration at 24 h: 1420 nM
[6]; oral
  Exposure values compared with the monohydrochloride salt: substantially higher
